Square brackets hold non-standard residues; d marks the D form. Peptide text beside a SMILES is read from it. * marks the point of attachment. ξ: configuration not given here. X1 = COC1=CC(=O)N(C(=O)C(O*)C(C)C)C1Cc1ccccc1; ξNMe2Val = CC(C)C(C(=O)*)N(C)C; NMeV = CN[CH](C(=O)O)C(C)C

This test deals with sea urchin embryo, cleavage alteration, microscopy. As to the kind of experiment: sea urchin embryo cleavage alteration, tubulin destabilizer project, whole organism, microscopy (AID 351).
Consider `COc1ccc(-c2nnc(-c3ccc(OC)c(OC)c3)o2)cc1OC`, for which the threshold concentration is 500 nM.

As for `Cc1cc(NC(=O)C(=O)c2cn(Cc3ccc(Cl)cc3)c3ccccc23)no1`, the threshold concentration is 10 nM. For the molecule `c1cncc(CNc2ccccc2-c2nnc(Nc3ccc4c(c3)OCCO4)o2)c1`, the threshold concentration was 1 nM.

On to `O=C(Nc1ccc2c(c1)OCO2)C(=O)c1cn(Cc2ccc(Cl)cc2)c2ccccc12`, for which the threshold concentration was 50 nM. Turning to `COC(=O)c1[nH]c2ccccc2c1NCc1ccncc1`, the threshold concentration is 500 nM. The value for `CCOc1ccc(Nc2nc(-c3c(C)nc4cc(C)ccn34)cs2)cc1` was 200 nM. Turning to `O=C(Nc1ccc2c(c1)OCCO2)C(=O)c1c[nH]c2ccccc12`, the threshold concentration was 2 nM.

On to `c1ccc(-c2nnc(Nc3ccc4c(c3)OCO4)o2)c(NCc2ccncc2)c1`, for which the threshold concentration is 0.5 nM. `Nc1c(C(=O)c2ccccc2)sc2nc3c(cc12)CCCC3`: the threshold concentration was 20 nM.

As for `Nc1cc2c(cc1-c1nnc(Nc3ccc4c(c3)OCO4)o1)OCO2`, the threshold concentration is 50 nM. For `Cc1nc2sccn2c1-c1csc(Nc2ccccc2Cl)n1`, the threshold concentration was 200 nM.

For `CCC1=CCN2CCC34c5cc(C6(C(=O)OC)CC7CN(CCc8c6[nH]c6ccccc86)CC(O)(CC)C7)c(OC)cc5N(C)C3C(O)(C(=O)OC)C(OC(C)=O)C1C24` (centres undefined), the threshold concentration is 200 nM. Regarding `c1cncc(CNc2ccccc2-c2nnc(Nc3ccc4c(c3)OCO4)o2)c1`, the threshold concentration was 1 nM. Take `O=C1c2cccc(O)c2C(=O)c2c(O)cc(CO)cc21`: the threshold concentration is 20000 nM. The value for `COC1=CC(=O)N(C(=O)C(OC(=O)C2CCCN2C(=O)C2CCCN2C(=O)C(C(C)C)N(C)C(=O)C(NC(=O)C(C(C)C)N(C)C)C(C)C)C(C)C)C1Cc1ccccc1` (centres undefined) (ξNMe2Val-V[NMeV]PP-X1; configuration not given here) was 5 nM; that for `Cc1nc2sccn2c1-c1csc(Nc2ccc(Cl)cc2)n1` was 100 nM. `Cc1ccc(Nc2nc(-c3c(C)nc4sccn34)cs2)cc1`: the threshold concentration is 5 nM. Take `c1ccc(-c2nnc(Nc3ccc4c(c3)OCCO4)o2)c(NCc2ccncc2)c1`: the threshold concentration is 0.5 nM.

Consider `COc1cccc(NC(=O)C(=O)c2cn(Cc3ccc(Cl)cc3)c3ccccc23)c1`, for which the threshold concentration was 4000 nM. The value for `c1ccc(-c2nnc(Nc3ccc4c(c3)OCCO4)o2)c(NCc2ccns2)c1` was 2000 nM. The value for `COc1ccc(-c2nc3sc4c(c3c(=O)[nH]2)CCCC4)c2ccccc12` was 50 nM; that for `COC(=O)Nc1nc2ccc(C(=O)c3cccs3)cc2[nH]1` was 5 nM. On to `Nc1cn[nH]c1-c1nc(-c2cccc(F)c2)n[nH]1`, for which the threshold concentration was 500 nM. `COc1cc2c(c(OC)c1OC)-c1ccc(OC)c(=O)cc1C(NC(C)=O)CC2` (centres undefined): the threshold concentration was 50000 nM. The value for `Nc1csnc1-c1nnc(Nc2ccc(Cl)cc2)o1` was 200 nM. With `COc1cc(N)c(-c2nnc(Nc3ccc4c(c3)OCO4)o2)c(OC)c1`, the threshold concentration was 50 nM. As for `CCOc1ccc(Nc2nc(-c3c(C)nc4sccn34)cs2)cc1`, the threshold concentration is 50 nM. The value for `COc1cc2c(cc1O)CCC1C2CCC2(C)C(O)CCC12` (centres undefined) was 200 nM.

As to `O=C(Nc1ccncc1)C(=O)c1cn(Cc2ccc(Cl)cc2)c2ccccc12`, the threshold concentration was 10 nM.

The record behind these values is PubChem BioAssay AID351 (ChemBlock, 2006).
